Each compound was assayed on DOHH2 cells (assay: Cell proliferation assay in DOHH2 cells (MTS)). Settings: 120 h.
Format: cell-based
Method: To investigate whether a compound is able to inhibit the activity of BTK in cells, a mechanism-based assay using DOHH2 (DSMZ catalog #: ACC47) cell was developed. In this assay, inhibition of BTK was detected by the inhibition of DOHH2 cells proliferation. Cells were collected and plated onto 96-well plates at the optimized cell density (5000 cells/well). Plates were incubated at 37° C., with 5% CO2 for 4 h. Compounds were serially diluted and added to the plates with the final concentrations as 10000, 3333.3, 1111.1, 370.4, 123.5, 41.2, 13.7, 4.6 and 1.5 nM. Plates were incubated at 37° C., with 5% CO2 for 120 h. An aliquot of 20 μL MTS/100 μL medium mixture solution were added to each well and the plates were incubated for exactly 2 h. The reaction was stopped by adding 25 μL 10% SDS to each well. The absorbance was measured by a microplate reader at 490 nm and 650 nm (reference wavelength). IC50 was calculated using GraphPad Prism 5.0.
Select compounds prepared as described above were assayed according to the biological procedures described herein.

Row | Compound | IC50 [nM]
1 | CCOc1cnc2[nH]cc(C(=O)c3ccc(Oc4ccccc4F)cc3C)c2c1N[C@@]12CO[C@H](CO)C1C2 (single isomer, unassigned) [Example 171] | 2
2 | CCOc1cnc2[nH]cc(C(=O)c3ccc(Oc4ccccc4F)cc3F)c2c1N[C@@]12CO[C@H](CO)C1C2 (single isomer, unassigned) [Example 172] | 1
3 | Cc1cc(Oc2ccccc2)ccc1C(=O)c1c[nH]c2ncc(C#N)c(N[C@@]34COC(CO)[C@@H]3C4)c12 (single isomer, unassigned) [Example 19] | 88
4 | CCOc1cnc2[nH]cc(C(=O)c3ccc(Oc4ccccc4)cc3F)c2c1N[C@@]12CO[C@H](CO)C1C2 (single isomer, unassigned) [Example 181] | 1

Same assay, conditions: Homo sapiens, DOHH-2, 120 h

Row | Compound | IC50 [nM]
5 | COc1cnc2[nH]cc(C(=O)c3ccc(Oc4ccccc4F)cc3Cl)c2c1N[C@@H]1CC[C@@H](CO)OC1 [Example 77, (2-chloro-4-(2-fluorophenoxy)phenyl)(4-(((3R,6S)-6-(hydroxymethyl)tetrahydro-2H-pyran-3-yl)amino)-5-methoxy-1H-pyrrolo[2,3-b]pyridin-3-yl)methanone] | 1
6 | O=C(c1ccc(Oc2ccccc2F)cc1)c1c[nH]c2ncc(Cl)c(N[C@@H]3CC[C@@H](CO)OC3)c12 [Example 98, (5-chloro-4-(((3R,6S)-6-(hydroxymethyl)tetrahydro-2H-pyran-3-yl)amino)-1H-pyrrolo[2,3-b]pyridin-3-yl)(4-(2-fluorophenoxy)phenyl)methanone] | 41
7 | Cc1cc(Oc2c(F)cccc2F)ccc1C(=O)c1c[nH]c2ncc(F)c(N[C@@H]3CC[C@@H](CO)OC3)c12 [Example 185, (4-(2,6-difluorophenoxy)-2-methylphenyl)(5-fluoro-4-(((3R,6S)-6-(hydroxymethyl)tetrahydro-2H-pyran-3-yl)amino)-1H-pyrrolo[2,3-b]pyridin-3-yl)methanone] | 14
8 | N#Cc1cnc2[nH]cc(C(=O)c3ccc(Oc4ccccc4F)cc3)c2c1N[C@@H]1CC[C@@H](CO)OC1 [Example 88, 3-(4-(2-fluorophenoxy)benzoyl)-4-(((3R,6S)-6-(hydroxymethyl)tetrahydro-2H-pyran-3-yl)amino)-1H-pyrrolo[2,3-b]pyridine-5-carbonitrile] | 99
9 | COc1cnc2[nH]cc(C(=O)c3c(C)cc(Oc4ccccc4F)cc3F)c2c1N[C@@H]1CC[C@@H](CO)OC1 [Example 132, (2-fluoro-4-(2-fluorophenoxy)-6-methylphenyl)(4-(((3R,6S)-6-(hydroxymethyl)tetrahydro-2H-pyran-3-yl)amino)-5-methoxy-1H-pyrrolo[2,3-b]pyridin-3-yl)methanone] | 7
10 | COc1cnc2[nH]cc(C(=O)c3ccc(Oc4ccccc4F)cc3F)c2c1N[C@@H]1CC[C@@H](CNC(C)=O)OC1 [Example 160, N-(((2S,5R)-5-((3-(2-fluoro-4-(2-fluorophenoxy)benzoyl)-5-methoxy-1H-pyrrolo[2,3-b]pyridin-4-yl)amino)tetrahydro-2H-pyran-2-yl)methyl)acetamide] | 1
11 | COC(=O)NC[C@@H]1CC[C@@H](Nc2c(OC)cnc3[nH]cc(C(=O)c4ccc(Oc5ccccc5F)cc4F)c23)CO1 [Example 163, methyl (((2S,5R)-5-((3-(2-fluoro-4-(2-fluorophenoxy)benzoyl)-5-methoxy-1H-pyrrolo[2,3-b]pyridin-4-yl)amino)tetrahydro-2H-pyran-2-yl)methyl)carbamate] | 45
12 | N#Cc1cnc2[nH]cc(C(=O)c3c(F)cc(Oc4ccccc4)cc3F)c2c1N[C@@H]1CC[C@@H](CO)OC1 [Example 45, 3-(2,6-difluoro-4-phenoxybenzoyl)-4-(((3R,6S)-6-(hydroxymethyl)tetrahydro-2H-pyran-3-yl)amino)-1H-pyrrolo[2,3-b]pyridine-5-carbonitrile] | 57
13 | COc1cnc2[nH]cc(C(=O)c3ccc(Oc4ccccc4F)cc3C)c2c1N[C@@H]1CC[C@@H](CO)OC1 [Example 78, (4-(2-fluorophenoxy)-2-methylphenyl)(4-(((3R,6S)-6-(hydroxymethyl)tetrahydro-2H-pyran-3-yl)amino)-5-methoxy-1H-pyrrolo[2,3-b]pyridin-3-yl)methanone] | 1
14 | COc1cnc2[nH]cc(C(=O)c3ccc(Oc4ccccn4)cc3F)c2c1N[C@@H]1CC[C@@H](CO)OC1 [Example 196, (2-fluoro-4-(pyridin-2-yloxy)phenyl)(4-(((3R,6S)-6-(hydroxymethyl)tetrahydro-2H-pyran-3-yl)amino)-5-methoxy-1H-pyrrolo[2,3-b]pyridin-3-yl)methanone] | 44
15 | COc1cnc2[nH]cc(C(=O)c3ccc(Oc4ncccc4F)cc3F)c2c1N[C@@H]1CC[C@@H](CO)OC1 [Example 195] | 83
16 | O=C(c1ccc(Oc2ccccc2)c(Cl)c1Cl)c1c[nH]c2nccc(N[C@@H]3CC[C@@H](CO)OC3)c12 [Example 36, (2,3-dichloro-4-phenoxyphenyl)(4-(((3R,6S)-6-(hydroxymethyl)tetrahydro-2H-pyran-3-yl)amino)-1H-pyrrolo[2,3-b]pyridin-3-yl)methanone] | 69
17 | COc1cnc2[nH]cc(C(=O)c3ccc(Oc4c(F)cccc4F)cc3F)c2c1N[C@@H]1CC[C@@H](CO)OC1 [Example 192, (4-(2,6-difluorophenoxy)-2-fluorophenyl)(4-(((3R,6S)-6-(hydroxymethyl)tetrahydro-2H-pyran-3-yl)amino)-5-methoxy-1H-pyrrolo[2,3-b]pyridin-3-yl)methanone] | 8
18 | O=C(c1ccc(Oc2c(F)cccc2F)cc1)c1c[nH]c2ncc(Cl)c(N[C@@H]3CC[C@@H](CO)OC3)c12 [Example 190, (5-chloro-4-(((3R,6S)-6-(hydroxymethyl)tetrahydro-2H-pyran-3-yl)amino)-1H-pyrrolo[2,3-b]pyridin-3-yl)(4-(2,6-difluorophenoxy)phenyl)methanone] | 11
19 | O=C(c1ccc(Oc2c(F)cccc2F)cc1Cl)c1c[nH]c2ncc(F)c(N[C@@H]3CC[C@@H](CO)OC3)c12 [Example 187, (2-chloro-4-(2,6-difluorophenoxy)phenyl)(5-fluoro-4-(((3R,6S)-6-(hydroxymethyl)tetrahydro-2H-pyran-3-yl)amino)-1H-pyrrolo[2,3-b]pyridin-3-yl)methanone] | 52
20 | Cc1cc(Oc2ccccc2F)ccc1C(=O)c1c[nH]c2ncc(F)c(N[C@@H]3CC[C@@H](CO)OC3)c12 [Example 126, (5-fluoro-4-(((3R,6S)-6-(hydroxymethyl)tetrahydro-2H-pyran-3-yl)amino)-1H-pyrrolo[2,3-b]pyridin-3-yl)(4-(2-fluorophenoxy)-2-methylphenyl)methanone] | 4
21 | O=C(c1ccc(Oc2ccccc2)cc1Cl)c1c[nH]c2ncc(F)c(N[C@@H]3CC[C@@H](CO)OC3)c12 [Example 6, (2-chloro-4-phenoxyphenyl)(5-fluoro-4-(((3R,6S)-6-(hydroxymethyl)tetrahydro-2H-pyran-3-yl)amino)-1H-pyrrolo[2,3-b]pyridin-3-yl)methanone] | 89
22 | CCOc1cnc2[nH]cc(C(=O)c3ccc(Oc4ccccc4)cc3)c2c1N[C@@H]1CC[C@@H](CO)OC1 [Example 178, (5-ethoxy-4-(((3R,6S)-6-(hydroxymethyl)tetrahydro-2H-pyran-3-yl)amino)-1H-pyrrolo[2,3-b]pyridin-3-yl)(4-phenoxyphenyl)methanone] | 15
23 | COc1cnc2[nH]cc(C(=O)c3cnc(Oc4ccccc4F)cc3C)c2c1N[C@@H]1CC[C@@H](CO)OC1 [Example 76, (6-(2-fluorophenoxy)-4-methylpyridin-3-yl)(4-(((3R,6S)-6-(hydroxymethyl)tetrahydro-2H-pyran-3-yl)amino)-5-methoxy-1H-pyrrolo[2,3-b]pyridin-3-yl)methanone] | 47
24 | O=C(c1ccc(Oc2c(F)cccc2F)cc1)c1c[nH]c2ncc(F)c(N[C@@H]3CC[C@@H](CO)OC3)c12 [Example 183, (4-(2,6-difluorophenoxy)phenyl)(5-fluoro-4-(((3R,6S)-6-(hydroxymethyl)tetrahydro-2H-pyran-3-yl)amino)-1H-pyrrolo[2,3-b]pyridin-3-yl)methanone] | 17
25 | COc1cnc2[nH]cc(C(=O)c3ccc(Oc4c(F)cccc4F)cc3)c2c1N[C@@H]1CC[C@@H](CO)OC1 [Example 184, (4-(2,6-difluorophenoxy)phenyl)(4-(((3R,6S)-6-(hydroxymethyl)tetrahydro-2H-pyran-3-yl)amino)-5-methoxy-1H-pyrrolo[2,3-b]pyridin-3-yl)methanone] | 1
26 | COc1cnc2[nH]cc(C(=O)c3ccc(Oc4ccccc4F)cc3C)c2c1N[C@@]12CO[C@H](CO)C1C2 (single isomer, unassigned) [Example 166] | 21
27 | N#Cc1cnc2[nH]cc(C(=O)c3ccc(Oc4ccccc4)cc3)c2c1N[C@@H]1CC[C@@H](CO)OC1 [Example 29, 4-(((3R,6S)-6-(hydroxymethyl)tetrahydro-2H-pyran-3-yl)amino)-3-(4-phenoxybenzoyl)-1H-pyrrolo[2,3-b]pyridine-5-carbonitrile] | 99
28 | Cc1cc(Oc2ccccc2)ccc1C(=O)c1c[nH]c2ncc(F)c(N[C@@H]3CC[C@@H](CO)OC3)c12 [Example 15, (5-fluoro-4-(((3R,6S)-6-(hydroxymethyl)tetrahydro-2H-pyran-3-yl)amino)-1H-pyrrolo[2,3-b]pyridin-3-yl)(2-methyl-4-phenoxyphenyl)methanone] | 85

Reference: US20220235049A1, “SUBSTITUTED PYRROLO [2, 3-b] PYRIDINE AND PYRAZOLO [3,4-b] PYRIDINE DERIVATIVES AS PROTEIN KINASE INHIBITORS” (Fochon Pharmaceuticals, Ltd., priority 2019, published 2022)
